Laboratory results: patent US20200352905A1, “6-(2,4-DICHLOROPHENYL)-5-[4-[(3S)-1-(3-FLUOROPROPYL)PYRROLIDIN-3-YL]OXYPHENYL]-8,9-DIHYDRO-7H-BENZO[7]ANNULENE-2-CARBOXYLIC ACID FOR USE IN METASTATIC OR ADVANCED BREAST CANCER PATIENTS” (SANOFI, priority 2019, published 2020)
“Also recorded” adds a separate entry of the source.

Tests used:
[1] = system: ER-positive and HER2-negative advanced breast cancer; assay: TED14856 Part B: antitumor activity per RECIST v1.1 by Independent Central Review
Method: ORR: antitumor activity as documented by tumor response (CR or PR) defined by RECIST v1.1 determined by Independent Central Review (ICR).
The signal extinction between baseline and on study treatment ^18FES-PET scans constitute the PD readout of the ER engagement. No ^18FES-PET or FDG PET/CT imaging is performed in Part B.
Patients with an early progression as per RECIST v1.1 or who died from disease progression are evaluable for response.

[2] = Phase 1/2 study TED14856 Part A (dose escalation): safety, DLT, TEAEs; format: in vivo
Method: This is an open-label, non-comparative, dose escalation and dose expansion, safety, efficacy, PK and PD evaluation study of compound (1) administered orally as monotherapy.
Dose escalation is initiated with a once daily (QD) schedule with a starting dose of 20 mg/day. Dose escalation is expected to proceed according to the Table A below. Intra-patient dose escalation is not permitted.
Part A of this study is designed using the 3+3 concept: 3 to 6 patients are treated at each dose level, depending on DLTs observed in the first 3 patients. If one of the first 3 evaluable patients experiences DLT during Cycle 1, this cohort is expanded with a total of up to 6 patients. If less than 1 out of 3 patients or less than 2 out of 6 patients experience DLTs at a given dose level, the dose escalation is proceeded to the next dose level.
(§1) For the QD regimen, during Cycle 1, one dose is taken on Day 1 in fasting condition, no dose on Day 2 and repeated administration starts from Day 3. On Day 3 only, the dose is taken in fed condition for a food effect evaluation, and then all subsequent administrations are taken in fasted condition, and at approximately the same time each day (±3 hours). From the conclusions drawn with the initial QD dose regimen, patients treated with other dose regimens are allowed to take Compound (1) in fasted or fed condition. For the BID regimen, the 600 mg dose is split in two drug administrations: 300 mg taken two times a day 12 hours apart (i.e. 2×300 mg)±1 hour with or without food (with one dose only taken in the morning on Day 1, no dose on Day 2 and then repeated BID dosing from Day 3).
Incidence of study treatment-related DLTs at Cycle 1 (Day 1 to Day 28). DLT is defined as the occurrence of any of the following treatment-emergent adverse events (TEAEs) related to the study therapy using NCI-CTCAE (v4.03): • Any Grade ≥3 non-hematological toxicity, except: • Grade 3 nausea and vomiting resolving to Grade ≤1 within 48 hours, with or without adequate antiemetic treatment, • Grade 3 diarrhea, if controlled with adequate antidiarrheal therapy and lasting less than 48 hours. • Any Grade ≥3 hematological toxicity, except • Grade 3 anemia, • Grade 4 neutropenia <7 days, • Grade 3 neutropenia without fever or infection, • Grade 3 thrombocytopenia without bleeding. • Any elevated total serum bilirubin >2×ULN. • Any toxicity related to study treatment, resulting in omission of the study treatment for 7 days or more during Cycle 1. • A TEAE that in the opinion of the study committee is possibly or probably study treatment-related and is of potential clinical significance such that further dose escalation would expose patients to unacceptable risk.
These TEAEs are considered as study treatment-related in the absence of evidence to the contrary and if not related to disease progression. If multiple toxicities are seen, the presence of DLT will be based on the most severe experienced toxicity. At the end of Cycle 1, each patient must be assessed by the Investigator as to whether or not the patient experienced DLT, and this information must be recorded within the appropriate screen of the electronic case report forms (eCRFs) and an electronic DLT notification (either DLT or not) is sent to the Sponsor. Patients can continue the treatment after resolution (Grade 1) of the adverse event (AE) or to their baseline status. Patients need to complete at least 75% of the intended doses at Cycle 1 to be evaluable and shall have ^18FES-PET scans evaluable at baseline and between Day 11 and Day 15 to be evaluable for DLTs in Part A.
Safety population includes all patients exposed to at least one dose of the study treatment.
Study treatment-related DLTs occurring during Cycle 1 are assessed and analyzed on the DLT-evaluable population. In addition, AEs meeting DLT criteria occurring in any additional cycle are assessed and analyzed on the safety population. […]

[3] = Pilot food effect on PK (moderate fat breakfast, Day 3 Cycle 1, Part A); format: in vivo, human
Method: Pilot food effect: A pilot food effect is assessed by PK sampling after drug administration with a moderate fat breakfast on Day 3 of Cycle 1 in all patients treated in Part A. All other dosing in Part A is taken in fasted condition. If results from the QD dosing regimen allow conclusions to be drawn, this will not be implemented for other dosing regimens (eg, BID) that are explored.
as §1
The food effect is assessed by comparing AUC0-24 and Cmax between Day 1/Cycle 1 and Day 3/Cycle 1 in Part A.

O=C(O)c1ccc2c(c1)CCCC(c1ccc(Cl)cc1Cl)=C2c1ccc(O[C@H]2CCN(CCCF)C2)cc1 [compound (1), 6-(2,4-dichlorophenyl)-5-[4-[(3S)-1-(3-fluoropropyl)pyrrolidin-3-yl]oxyphenyl]-8,9-dihydro-7H-benzo[7]annulene-2-carboxylic acid]
Complete Response (CR) ([1]; 400 mg, N=46, by ICR): 0 n
Clinical Benefit Rate (CBR) assessed by ICR ([1]; ESR1 mutated patients (3/19)): 15.8%
Clinical Benefit Rate (CBR) assessed by ICR ([1]; patients with wild-type ESR1 (9/26)): 34.6%
Patients with related TEAE: Urinary tract infection ([2]; Part A, N=16): 0 n
maximum tolerated dose (MTD) ([2]; Part A, up to 600 mg QD): not reached; also recorded: no MTD observed
patients who died during study period ([2]; Part A, 3 disease progression, 1 unknown reason): 4 patients
patients with serious TEAEs ([2]; Part A, all considered not associated with compound (1)): 3 patients
Patients with Gr3 TEAE: Abdominal pain upper ([2]; female, human, in vivo): 0 n
Patients with Gr3 TEAE: Arthralgia ([2]; female, human, in vivo): 0 n
Patients with Gr3 TEAE: Asthenia ([2]; female, human, in vivo): 0 n
Patients with Gr3 TEAE: Constipation ([2]; female, human, in vivo): 0 n
Patients with Gr3 TEAE: Cough ([2]; female, human, in vivo): 0 n
Patients with Gr3 TEAE: Decreased appetite ([2]; female, human, in vivo): 0 n
Patients with Gr3 TEAE: Diarrhea ([2]; female, human, in vivo): 0 n
Patients with Gr3 TEAE: Dry skin ([2]; female, human, in vivo): 0 n
Patients with Gr3 TEAE: Dysgeusia ([2]; female, human, in vivo): 0 n
Patients with Gr3 TEAE: Hot flush ([2]; female, human, in vivo): 0 n
Patients with Gr3 TEAE: Hypertension ([2]; female, human, in vivo): 0 n
Patients with Gr3 TEAE: Hypoaesthesia ([2]; female, human, in vivo): 0 n
Patients with Gr3 TEAE: Musculoskeletal chest pain ([2]; female, human, in vivo): 0 n
Patients with Gr3 TEAE: Myalgia ([2]; female, human, in vivo): 0 n
Patients with Gr3 TEAE: Nasopharyngitis ([2]; female, human, in vivo): 0 n
Patients with Gr3 TEAE: Nausea ([2]; female, human, in vivo): 0 n
Patients with Gr3 TEAE: Night sweat ([2]; female, human, in vivo): 0 n
Patients with Gr3 TEAE: Pain ([2]; female, human, in vivo): 0 n
Patients with Gr3 TEAE: Photophobia ([2]; female, human, in vivo): 0 n
Patients with Gr3 TEAE: Rash ([2]; female, human, in vivo): 0 n
Patients with Gr3 TEAE: Upper respiratory tract infection ([2]; female, human, in vivo): 0 n
Patients with Gr3 TEAE: Vomiting ([2]; female, human, in vivo): 0 n
Patients with related Gr3 TEAE: ALL ([2]; female, human, in vivo): 0 n
Patients with related Gr3 TEAE: Abdominal pain upper ([2]; female, human, in vivo): 0 n
Patients with related Gr3 TEAE: Arthralgia ([2]; female, human, in vivo): 0 n
Patients with related Gr3 TEAE: Asthenia ([2]; female, human, in vivo): 0 n
Patients with related Gr3 TEAE: Back pain ([2]; female, human, in vivo): 0 n
Patients with related Gr3 TEAE: Constipation ([2]; female, human, in vivo): 0 n
Patients with related Gr3 TEAE: Cough ([2]; female, human, in vivo): 0 n
Patients with related Gr3 TEAE: Decreased appetite ([2]; female, human, in vivo): 0 n
Patients with related Gr3 TEAE: Diarrhea ([2]; female, human, in vivo): 0 n
Patients with related Gr3 TEAE: Dry skin ([2]; female, human, in vivo): 0 n
Patients with related Gr3 TEAE: Dysgeusia ([2]; female, human, in vivo): 0 n
Patients with related Gr3 TEAE: Dyspnoea ([2]; female, human, in vivo): 0 n
Patients with related Gr3 TEAE: Fatigue ([2]; female, human, in vivo): 0 n
Patients with related Gr3 TEAE: Hot flush ([2]; female, human, in vivo): 0 n
Patients with related Gr3 TEAE: Hypertension ([2]; female, human, in vivo): 0 n
Patients with related Gr3 TEAE: Hypoaesthesia ([2]; female, human, in vivo): 0 n
Patients with related Gr3 TEAE: Musculoskeletal chest pain ([2]; female, human, in vivo): 0 n
Patients with related Gr3 TEAE: Myalgia ([2]; female, human, in vivo): 0 n
Patients with related Gr3 TEAE: Nasopharyngitis ([2]; female, human, in vivo): 0 n
Patients with related Gr3 TEAE: Nausea ([2]; female, human, in vivo): 0 n
Patients with related Gr3 TEAE: Night sweat ([2]; female, human, in vivo): 0 n
Patients with related Gr3 TEAE: Pain ([2]; female, human, in vivo): 0 n
Patients with related Gr3 TEAE: Photophobia ([2]; female, human, in vivo): 0 n
Patients with related Gr3 TEAE: Rash ([2]; female, human, in vivo): 0 n
Patients with related Gr3 TEAE: Upper respiratory tract infection ([2]; female, human, in vivo): 0 n
Patients with related Gr3 TEAE: Urinary tract infection ([2]; female, human, in vivo): 0 n
Patients with related Gr3 TEAE: Vomiting ([2]; female, human, in vivo): 0 n
Patients with related TEAE: Cough ([2]; female, human, in vivo): 0 n
Patients with related TEAE: Dysgeusia ([2]; female, human, in vivo): 0 n
Patients with related TEAE: Hypoaesthesia ([2]; female, human, in vivo): 0 n
Patients with related TEAE: Musculoskeletal chest pain ([2]; female, human, in vivo): 0 n
Patients with related TEAE: Nasopharyngitis ([2]; female, human, in vivo): 0 n
Patients with related TEAE: Rash ([2]; female, human, in vivo): 0 n
Patients with related TEAE: Upper respiratory tract infection ([2]; female, human, in vivo): 0 n
serious TEAEs reported ([2]; female, human, in vivo): 4
Tmax ([3]; female, human, plasma, oral, overall across doses, read-out: delay of median tmax with food): ~1 h
increase of exposure with food ([3]; overall across doses): about 45%
food effect on exposure ([3]; regardless of dose level): did not result in a major effect on exposure; also recorded: minimal
